Test results: patent publication US8993637B2 (priority 2013, dated 2015)

Tested on: RAW 264.7 macrophages
Experiment: ROS production assay in LPS-activated macrophages
Type: cell-based, murine
Settings: NAC 10 mM; 30 min before and during LPS (1 μg/ml) stimulation, 0-4 h
Description: ROS production was measured as the relative fluorescence intensity. […] The data are expressed as the mean±SD for three separate experiments. *p<0.05, **p<0.01 compared to the LPS-treated group. RAW-Blue™ cells (Murine macrophages RAW264.7 stably transfected with the NF-κB reporter gene) purchased from InvivoGen (San Diego, Calif.). LPS (from Escherichia coli 0111:B4) and mouse antibodies against phospho-ERK1/2, phospho-JNK1/2, and phospho-p38 (all from Sigma, St. Louis, Mo.). Rabbit antibodies against mouse ERK1, JNK1, and p38, and HRP-labeled second antibodies were purchased from Santa Cruz Biotechnology, and IL-1β, IL-6, and TNF-α ELISA kits from R&D Systems. ROS production assay, NO production assay, NF-κB reporter assay, ELISA, and Western blotting were performed as described previously.

CC(=O)N[C@@H](CS)C(=O)O [NAC, N-acetyl cysteine, reference compound]
LPS-induced increase in ROS production: reduced
